We go through one molecule from patent publication US8921348B2, “Optimizing mifepristone levels in plasma serum of patients suffering from mental disorders treatable with glucocorticoid receptor antagonists” (Corcept Therapeutics, priority 2007, dated 2014).

Where only a bound is given, the exact number is not on record here.

Data set [1] concerns patients with major depressive disorder with psychotic features (PMD). The data set is described as follows: Phase III trials of CORLUX plus antidepressant vs. placebo: responders on BPRS Positive Symptom Subscale. The format is in vivo, human. An excerpt:
This example provides a randomized, double-blind, placebo-controlled, parallel group study of the safety and efficacy of three dose levels of CORLUXTM (Mifepristone) plus an antidepressant vs. placebo plus an antidepressant in the treatment of psychotic symptoms in patients with major depressive disorder with psychotic features (PMD). The study was a Phase III trial performed using several investigators at several different sites. […] Patients eligible for randomization were male or nonpregnant female outpatients, and inpatients, if clinically required, with a diagnosis of Major Depressive Disorder with Psychotic Features (DSM-IV 296.24 or 296.34), and a BPRS Positive Symptom subscale score of at least 12, a BPRS total score of at least 38, and a HAMD-24 score of at least 20. CORLUX was used as the test drug at 300 (1×300 mg tablet), 600 (2×300 mg tablet), and 1200 mg (4×300 mg tablet) once a day by mouth for the initial 7 days. […] The reference drug was a placebo (1, 2, or 4 tablets matching CORLUX 300 mg tablets) once a day by mouth for the initial 7 days. […] An antidepressant selected from a prescribed list was started simultaneously with the study drug, and continued to the end of the trial. BPRS and HAM-D assessments were performed at Screen and on Days 0, 7, 14, 28, 42, and 56, and at early termination when it occurred. Safety visits occurred at Days 21 and 35. The patients who are seen as outpatients made daily visits to the clinic setting to receive study medications for the first 7 days. If clinically necessary, a patient was treated as an inpatient. In addition to the selected antidepressant, continuing benzodiazepines was allowed up to specified dose levels, but antipsychotics, mood stabilizers and additional antidepressants were not allowed during the entire study. If the patient was at imminent risk to him/herself and/or others and therefore could not be adequately treated within the study (e.g., required ECT, new or re-hospitalization for PMD, antipsychotics or mood stabilizers, or a second antidepressant), the patient underwent an early termination visit on the day that rescue therapy was started and completed final efficacy evaluations. If early termination occurred prior to day 35, the patient returned for a safety follow up visit at day 35. […] The secondary endpoints were: (1) the proportion of responders at days 7 and 28; and (2) the mean change from baseline to day 56 in the HAM-D-24 total score. […] This example provides an international, double-blind, placebo-controlled study of the efficacy and safety of CORLUXTM (Mifepristone) vs. placebo in the treatment of psychotic symptoms in patients with Psychotic Major Depression (PMD). The study was a Phase III trial performed using several investigators at several different international sites. […] The number of patients was 220 evaluable subjects. […] CORLUX was administered in a 600 mg dose once a day by mouth for the initial 7 days (administered as two 300 mg tablets). Reference drug, dose, dosage regimen, route of administration: Matching placebo was administered once a day by mouth for the initial 7 days. […] After the 7-day dosing period, patients were evaluated at Days 14, 21, 28, 35, 42 and 56. An antidepressant was administered simultaneously with study drug, and continued to the end of the trial (Day 56). BPRS and HAMD-24 assessments were performed at Screen and on Days 0, 7, 14, 28, 42 and 56, or at early termination. A safety visit occurred on Days 21 and 35, and at study termination on Day 56. Subjects treated on an outpatient basis made daily visits to the clinic to receive study medication for the first 7 days. Subjects were treated on an inpatient basis for as long as deemed clinically necessary by the investigator. In addition to the selected antidepressant, concomitant benzodiazepine treatment was allowed up to specified dose levels. Antipsychotics, mood stabilizers and a second antidepressant were prohibited during the entire study. […]

The nature of data set [2]: Mifepristone blood serum/plasma level after the same dose in different patients. The format is in vivo, human. Particulars: same dose of mifepristone. The procedure:
In some embodiments, the assay can be performed as follows. Blood is collected from a patient in a vacutainer containing sodium heparin. The blood is centrifuged and the resulting plasma frozen at an appropriate temperature until assay. In some embodiments, the temperature is about −70° C. In other embodiments, other blood components can be collected and stored. Prior to analysis, the plasma is thawed and a fraction of the plasma is mixed with an internal standard in a solvent such as acetonitrile, to obtain a fixed concentration of the standard. In some embodiments, the internal standard can be mifepristone-d4. The concentration of the internal standard is selected in order to be greater than the expected concentration of mifepristone in the plasma. […]
The sample can then be analyzed by reverse-phase high pressure liquid chromatography (HPLC). […]
The reverse-phase HPLC column can be a phenyl column maintained at 50° C. […] Following elution, the mobile phase can be nebulized using heated nitrogen in a Z-spray source/interface and the ionized compounds detected using a tandem quadrupole mass spectrometer. Mifepristone (molecular weight of 430 g/mol) can be detected at m/z 372.30. The internal standard mifepristone-d4 can be detected at m/z 376.30. The ratio of the mifepristone peak height to the peak height for the internal standard can then be calculated. […]

For data set [3] the following is noted: species and route not given; cited from earlier work.

`CC#C[C@]1(O)CC[C@H]2[C@@H]3CCC4=CC(=O)CCC4=C3[C@@H](c3ccc(N(C)C)cc3)C[C@@]21C` [Corlux, 17-beta-hydroxy-11-beta-(4-dimethyl-aminophenyl)-17-alpha-(1-propynyl)-estra-4,9-dien-3-one]: the “proportion of patients with at least a 50% reduction from baseline in BPRS PSS scores at days 7 and 56” value in data set [1] (1200 mg group (OC), all patients receiving the 1200 mg dose, FIG. 4) worked out at 47%; in data set [1] (1200 mg group (OC), plasma levels <1357 ng/mL, FIG. 5), 31%; in data set [1] (1200 mg group (OC), plasma levels <1661 ng/mL, FIG. 6) it was 39%; in data set [1] (1200 mg group (OC), plasma levels >1357 ng/mL, FIG. 5) it was 54%; in data set [1] (1200 mg group (OC), plasma levels >1661 ng/mL, FIG. 6), 58%; in data set [1] (all studies (OC), all patients receiving Corlux, FIG. 1), 35%. Moreover, the “proportion of patients with at least a 50% reduction from baseline in BPRS PSS scores at days 7 and 56” value in data set [1] (all studies (OC), patients with plasma levels <1357 ng/mL, FIG. 2) stood at 27%; in data set [1] (all studies (OC), patients with plasma levels <1661 ng/mL, FIG. 3) it was 29%; in data set [1] (all studies (OC), patients with plasma levels >1357 ng/mL, FIG. 2) it was 40%; in data set [1] (all studies (OC), patients with plasma levels >1661 ng/mL, FIG. 3), 44%. The “difference in blood serum levels from one patient to another” value in data set [2] is ≤ 800% and up to 800%. Further, the LD50 dose entry in data set [3] was “about 1000 mg/kg”.
